Test results from patent US20100040679A1, “Compositions for Reducing Nicotine Withdrawal Symptoms and/or Tobacco Usage” (priority 2006, published 2010).

What was measured:
[1] = humans; estimated by Benowitz 1983; cited from earlier work
[2] = rat brain after peripheral nicotine administration; Dwoskin et al 1999; cited from earlier work
nicotine dependent rats = assay: mecamylamine-precipitated nicotine abstinence signs in nicotine dependent rats; format: in vivo, Sprague-Dawley rats; details: 1 mg/kg subcutaneous; 30 minutes; FIG. 2
Protocol: A study was conducted to compare the effects of low doses of dextromethorphan (1 mg/kg) alone, cotinine (1 mg/kg) alone, and a dextromethorphan plus cotinine combination (1 mg/kg each) versus placebo (saline) for their effect on nicotine dependence. The subjects were 30 male Sprague-Dawley rats, weighing between 282-372 grams each. All subjects were implanted subcutaneously with an Alza 2ML1 osmotic minipump under aseptic conditions and halothane anesthesia.
All subjects were rendered nicotine dependent by seven days infusion with 9 mg/kg/day nicotine bitartrate (3.15 mg/kg expressed as the base) in saline from the subcutaneous minipump. On the 7th day of infusion, each subject received two subcutaneous injections. Group 1 (n=8) received two injections of saline vehicle only. Group 2 (n=7) received a subcutaneous injection of saline and an subcutaneous injection of 1 mg/kg cotinine in saline. Group 3 (n=8) received a subcutaneous injection of saline and a subcutaneous injection of 1 mg/kg dextromethorphan. Group 4 (n=7) received a subcutaneous injection of 1 mg/kg cotinine and 1 mg/kg dextromethorphan. […] These low doses were intended to prevent any ceiling effect which may have masked the benefit of adding a second medication. The injection volumes in every case were […]. […]

[3] = tested on: mecamylamine-precipitated nicotine withdrawal syndrome; assay: previous study of mecamylamine-precipitated nicotine withdrawal syndrome; format: in vivo; details: dose 1 mg/kg, given alone
Protocol: All subjects were rendered nicotine dependent by seven days infusion with 9 mg/kg/day nicotine bitartrate (3.15 mg/kg expressed as the base) in saline from the subcutaneous minipump. On the 7th day of infusion, each subject received two subcutaneous injections. Group 1 (n=8) received two injections of saline vehicle only. Group 2 (n=7) received a subcutaneous injection of saline and an subcutaneous injection of 1 mg/kg cotinine in saline. Group 3 (n=8) received a subcutaneous injection of saline and a subcutaneous injection of 1 mg/kg dextromethorphan. Group 4 (n=7) received a subcutaneous injection of 1 mg/kg cotinine and 1 mg/kg dextromethorphan. […] These low doses were intended to prevent any ceiling effect which may have masked the benefit of adding a second medication. The injection volumes in every case were 1 mg/kg.

In the case of `CN1CCCC1c1cccnc1` (centres unmarked) [nicotine], the “systemically absorbed nicotine metabolized to cotinine” value [1] is given as 86%.

For `CN1C(=O)CC[C@H]1c1cccnc1` [cotinine], the “abundance as nicotine metabolite in brain” value [2] is listed as “most abundant metabolite in rat brain”, the “Miscellaneous Less-Frequent Signs (category of nicotine abstinence signs)” value (nicotine dependent rats) is listed as “tied for lowest” and the “effects in reducing mecamylamine-precipitated nicotine withdrawal syndrome” value [3] is listed as “only minimal effects”.

In the case of `COc1ccc2c(c1)[C@]13CCCC[C@@H]1[C@H](C2)N(C)CC3` [dextromethorphan, reference compound], the “effects in reducing mecamylamine-precipitated nicotine withdrawal syndrome” value [3] is reported as “only minimal effects”.
